Series [1] is described as follows: hygroscopicity (uptake at 90% relative humidity). The format is physicochemical.
The next series can be described thus: solubility. The class given is physicochemical. Particulars: in e.g., polar solvents, water, glycols, and aqueous mixtures.

Molecules are shown by their SMILES.

With `COCCN(CCOC)c1nc(C)nc2c(-c3ccc(OC)cc3C)c(C)nn12.O=S(=O)(O)c1ccccc1` [polymorph H-1, 4-(bis(2-methoxyethyl)amino)-2,7-dimethyl-8-(2-methyl-4-methoxyphenyl)-[1,5-a]-pyrazolo-1,3,5-triazine benzenesulfonate], the “hygroscopicity (uptake)” value in series [1] is given as “less than 2%”. In addition, in the series “solubility”, the solubility result is on record as “soluble”.

For the origin of these results see US7153961B2, “Salt and crystalline form thereof of a corticotropin releasing factor receptor antagonist” (Bristol-Myers Squibb Pharma Co., priority 2003, dated 2006).
